How the values were obtained:
[1] = Metabolic stability in human liver microsomes; assay type: in vitro ADME; conditions: human liver microsomes, 0.5 μM compound, 1 mg/mL protein, 1 mM NADPH, pH 7.4, 37° C.; "stable" = no degradation could be confirmed
Procedure: The metabolic stability of the test compounds was determined using human liver microsomes. Incubations were performed with a compound concentration of 0.5 μM and a protein concentration of 1 mg/mL in 50 mM sodium phosphate buffer at physiological pH (7.4) and temperature (37° C.). The incubation mixture was preincubated at 37° C. prior to addition of NADPH (1 mM, final concentration). At several time points during 60 minutes, aliquots were removed and added to a 96 well plate placed on dry ice and deep-frozen. Samples were analyzed with LC-MS for concentration of parent compound. From the slope of the log [parent compound] vs. incubation time regression line, the in vitro half-life […] was determined. The intrinsic clearance (CLint) can be calculated using a modified Michaelis-Menten relationship, i.e., CLint=ln 2/t1/2. The CLint can then be converted to CL by using the well-stirred model of hepatic extraction. A value of 1.24 L/h/kg of the hepatic blood flow in man can be used. Results with respect to a number of compounds of the invention are reported as t1/2 (in minutes) in Table 1.
(§1) The inhibition of T cell proliferation was studied in a human T lymphoblast cell line (Jurkat). The IC50 value for each compound was calculated from the dose response curve. Adding uridine was used to monitor the specificity of the DHODH mechanism. The metabolic stability was studied in human liver microsomes. Table 1 exemplifies the invention, without limiting the scope thereof.

[2] = tested on: human T lymphoblast cell line (Jurkat); experiment: Inhibition of T-cell proliferation (Jurkat, 3H-TdR incorporation); assay type: cell-based; conditions: for IC50: Homo sapiens, Jurkat cells, 3 days culture, 3H-TdR pulse last 4 hours
Procedure: Inhibition of T cell proliferation was studied in a functional assay. A human T lymphoblast cell line (Jurkat) was cultured in the presence and absence, respectively, of DHODH inhibiting compounds. Jurkat cells were seeded in microtiterplates at a concentration of 5×10^5/mL in RPMI 1640 growth media supplemented with ultraglutamin, 10% fetal calf serum, 1 mM sodium pyruvat, 10 mM HEPES and 0.1 mg/mL gentamycin. A dilution series of ten different concentrations of inhibitor was added to the wells and the plates were kept in a cell incubator for 3 days. At the beginning of the last 4 hours period, the cultures were pulsed with 10 μl/well 0.1 Ci/mmol 3H-TdR and then harvested on filter papers and counted with a ([…]. The IC50 values for each compound were calculated from the obtained dose response curves. Adding uridine to a concentration of about 50 μM in the wells monitored the specificity for the mechanism i.e., the inhibition of cell proliferation is due to DHODH inhibition and not to a general cell toxicity of the compounds. This addition of uridine reverses the anti-proliferative effect by bypassing the DHODH enzyme using an external source of pyrimidine. Results in respect of a number of compounds of the invention are reported as Jurkat IC50 (in μM) in Table 1.
as §1

| Compound | half-life at 0.5 μM [1] [h] | IC50 [2] [nM] | t1/2 [1] | inhibitory effect on T-cell proliferation (in words) ([2]; Jurkat, cf. Table 1) |
| --- | --- | --- | --- | --- |
| CCC(=O)Nc1ccc(COc2ccc(OC(F)(F)F)c(Br)c2)cc1C(=O)O [INV 22, 5-(3-Bromo-4-trifluoromethoxy-phenoxymethyl)-2-propionylamino-benzoic acid] | 3.3 | 710 | – | – |
| CCC(=O)Nc1ccc(COc2ccc(Br)cc2C(F)(F)F)cc1C(=O)O [INV 3, 5-(4-Bromo-2-trifluoromethyl-phenoxymethyl)-2-propionylamino-benzoic acid] | 3.9 | 470 | – | – |
| CCC(=O)Nc1ccc(COc2ccc(Br)c(Cl)c2)cc1C(=O)O [INV 20, 5-(4-Bromo-3-chloro-phenoxymethyl)-2-propionylamino-benzoic acid] | 1.2 | 730 | – | – |
| CCC(=O)Nc1ccc(/C=C/c2ccc(Cl)cc2C(F)(F)F)cc1C(=O)O [INV 13, 5-[(E)-2-(4-Chloro-2-trifluoromethyl-phenyl)-vinyl]-2-propionylamino-benzoic acid] | 1.75 | 50 | – | – |
| CCC(=O)Nc1ccc(/C=C/c2ccc(Cl)cc2Cl)cc1C(=O)O [INV 16, 5-[(E)-2-(2,4-Dichloro-phenyl)-vinyl]-2-propionylamino-benzoic acid] | 1.83 | 20 | – | – |
| CCC(=O)Nc1ccc(COc2ccc(Cl)cc2Cl)cc1C(=O)O [INV 6, 5-(2,4-Dichloro-phenoxymethyl)-2-propionylamino-benzoic acid] | 3.32 | 350 | – | – |
| CCC(=O)Nc1ccc(COc2ccc(C(F)(F)F)cc2C(F)(F)F)cc1C(=O)O [INV 1, 5-(2,4-Bis-trifluoromethyl-phenoxymethyl)-2-propionylamino-benzoic acid] | – | 600 | stable | – |
| CCC(=O)Nc1ccc(/C=C/c2ccc(F)cc2Cl)cc1C(=O)O [INV 15, 5-[(E)-2-(2-Chloro-4-fluoro-phenyl)-vinyl]-2-propionylamino-benzoic acid] | 2.28 | 35 | – | – |
| CCC(=O)Nc1ccc(COc2ccc(F)c(Cl)c2)cc1C(=O)O [INV 19, 5-(3-Chloro-4-fluoro-phenoxymethyl)-2-propionylamino-benzoic acid] | 1.18 | 420 | – | – |
| CCC(=O)Nc1ccc(/C=C/c2ccc(C(F)(F)F)cc2C(F)(F)F)cc1C(=O)O [INV 11, 5-[(E)-2-(2,4-Bis-trifluoromethyl-phenyl)-vinyl]-2-propionylamino-benzoic acid] | 8.15 | 90 | – | – |
| CCC(=O)Nc1ccc(COc2ccc(F)cc2C(F)(F)F)cc1C(=O)O [INV 2, 5-(4-Fluoro-2-trifluoromethyl-phenoxymethyl)-2-propionylamino-benzoic acid] | 3.93 | 580 | – | – |
| CCC(=O)Nc1ccc(COc2ccc(C(F)(F)F)cc2Cl)cc1C(=O)O [INV 4, 5-(2-Chloro-4-trifluoromethyl-phenoxymethyl)-2-propionylamino-benzoic acid] | – | 420 | stable | – |
| CCC(=O)Nc1ccc(COc2ccc(F)cc2Br)cc1C(=O)O [INV 8, 5-(2-Bromo-4-fluoro-phenoxymethyl)-2-propionylamino-benzoic acid] | 5.33 | 360 | – | – |
| CCC(=O)Nc1ccc(COc2ccc(Cl)c(C(F)(F)F)c2)cc1C(=O)O [INV 18, 5-(4-Chloro-3-trifluoromethyl-phenoxymethyl)-2-propionylamino-benzoic acid] | 7.73 | 840 | – | – |
| CCC(=O)Nc1ccc(COc2ccc(OC(F)(F)F)c(Cl)c2)cc1C(=O)O [INV 21, 5-(3-Chloro-4-trifluoromethoxy-phenoxymethyl)-2-propionylamino-benzoic acid] | 2.8 | 890 | – | – |
| CCC(=O)Nc1ccc(COc2ccc(F)c(C(F)(F)F)c2)cc1C(=O)O [INV 17, 5-(4-Fluoro-3-trifluoromethyl-phenoxymethyl)-2-propionylamino-benzoic acid] | 1.73 | 530 | – | – |
| CCC(=O)Nc1ccc(COc2ccc(Cl)cc2Br)cc1C(=O)O [INV 9, 5-(2-Bromo-4-chloro-phenoxymethyl)-2-propionylamino-benzoic acid] | 2.8 | 240 | – | – |
| CCC(=O)Nc1ccc(/C=C/c2ccc(F)cc2F)cc1C(=O)O [INV 14, 5-[(E)-2-(2,4-Difluoro-phenyl)-vinyl]-2-propionylamino-benzoic acid] | 3.55 | 240 | – | – |
| CCC(=O)Nc1ccc(COc2ccc(OC(F)(F)F)cc2Cl)cc1C(=O)O [INV 10, 5-(2-Chloro-4-trifluoromethoxy-phenoxymethyl)-2-propionylamino-benzoic acid] | – | 240 | stable | – |

Further lines, with some results ahead:

| half-life at 0.5 μM [1] [h] | IC50 [2] [nM] | t1/2 [1] | Compound | inhibitory effect on T-cell proliferation (in words) ([2]; Jurkat, cf. Table 1) |
| --- | --- | --- | --- | --- |
| 1.92 | 480 | – | CCC(=O)Nc1ccc(/C=C/c2ccc(Cl)c(Cl)c2)cc1C(=O)O [INV 27, 5-[(E)-2-(3,4-Dichloro-phenyl)-vinyl]-2-propionylamino-benzoic acid] | – |
| – | 740 | stable | CCC(=O)Nc1ccc(/C=C/c2ccc(C(F)(F)F)c(F)c2)cc1C(=O)O [INV 25, 5-[(E)-2-(3-Fluoro-4-trifluoromethyl-phenyl)-vinyl]-2-propionylamino-benzoic acid] | – |
| 1.22 | 750 | – | CCC(=O)Nc1ccc(/C=C/c2ccc(F)c(Cl)c2)cc1C(=O)O [INV 26, 5-[(E)-2-(3-Chloro-4-fluoro-phenyl)-vinyl]-2-propionylamino-benzoic acid] | – |
| – | 12000 | – | COc1ccc(OC)c(CCc2ccc(NC(C)=O)c(C(=O)O)c2)c1 [REF 9, 2-acetylamino-5-[2-(2,5-dimethoxy-phenyl)-ethyl]-benzoic acid, reference compound] | very weak inhibitory effect |
| 2.45 | 750 | – | CCC(=O)Nc1ccc(/C=C/c2ccc(F)c(C(F)(F)F)c2)cc1C(=O)O [INV 23, 5-[(E)-2-(4-Fluoro-3-trifluoromethyl-phenyl)-vinyl]-2-propionylamino-benzoic acid] | – |
| 3.87 | 420 | – | O=C(O)c1cc(OCc2ccc(Br)cc2C(F)(F)F)ccc1NC(=O)C1CC1 [INV 31, 5-(4-Bromo-2-trifluoromethyl-benzyloxy)-2-(cyclopropanecarbonyl-amino)-benzoic acid] | – |
| – | 600 | – | CCC(=O)Nc1ccc(/C=C/c2ccc(OC(F)(F)F)c(Cl)c2)cc1C(=O)O [INV 28, 5-[(E)-2-(3-Chloro-4-trifluoromethoxy-phenyl)-vinyl]-2-propionylamino-benzoic acid] | – |
| 3.18 | 590 | – | CCC(=O)Nc1ccc(OCc2ccc(C(F)(F)F)cc2Br)cc1C(=O)O [INV 30, 5-(2-Bromo-4-trifluoromethyl-benzyloxy)-2-propionylamino-benzoic acid] | – |
| 5.75 | 570 | – | CCC(=O)Nc1ccc(/C=C/c2ccc(Cl)c(C(F)(F)F)c2)cc1C(=O)O [INV 24, 5-[(E)-2-(4-Chloro-3-trifluoromethyl-phenyl)-vinyl]-2-propionylamino-benzoic acid] | – |
| – | 12300 | – | CCC(=O)Nc1ccc(OCc2ccccc2C(F)(F)F)cc1C(=O)OC [REF 10, 2-Propionylamino-5-(2-trifluoromethyl-benzyloxy)-benzoic acid methyl ester, reference compound] | – |
